The target in test [1] is Transmembrane protease serine 4 (Homo sapiens) (UniProt Q9NRS4). As to the kind of experiment: Inhibition of TMPRSS4 serine protease domain (Val 205 to Leu 437 residues) (unknown origin) expressed in Escherichia coli BL21 (DE3) using […]-Gln-Ala-Arg-7-amido-4-methylcoumarin hydrochloride substrate and measured for 5 mins at 5 mins intervals by fluorescence based assay relative to control.

For test [2] the target is unchanged. Put plainly: Inhibition of TMPRSS4 serine protease domain (Val 205 to Leu 437 residues) (unknown origin) expressed in Escherichia coli BL21 (DE3) at 30 uM using […]-Gln-Ala-Arg-7-amido-4-methylcoumarin hydrochloride substrate and measured for 5 mins at 5 mins intervals by fluorescence based assay relative to control.
Test [3] has the same target. As to the kind of experiment: Inhibition of TMPRSS4 serine protease domain (Val 205 to Leu 437 residues) (unknown origin) expressed in Escherichia coli BL21 (DE3) at 10 uM using […]-Gln-Ala-Arg-7-amido-4-methylcoumarin hydrochloride substrate and measured for 5 mins at 5 mins intervals by fluorescence based assay relative to control.

The structures appear in SMILES notation.

Chain of Transmembrane protease serine 4 (Homo sapiens) (Q9NRS4 whole entry, the tested form may be a part): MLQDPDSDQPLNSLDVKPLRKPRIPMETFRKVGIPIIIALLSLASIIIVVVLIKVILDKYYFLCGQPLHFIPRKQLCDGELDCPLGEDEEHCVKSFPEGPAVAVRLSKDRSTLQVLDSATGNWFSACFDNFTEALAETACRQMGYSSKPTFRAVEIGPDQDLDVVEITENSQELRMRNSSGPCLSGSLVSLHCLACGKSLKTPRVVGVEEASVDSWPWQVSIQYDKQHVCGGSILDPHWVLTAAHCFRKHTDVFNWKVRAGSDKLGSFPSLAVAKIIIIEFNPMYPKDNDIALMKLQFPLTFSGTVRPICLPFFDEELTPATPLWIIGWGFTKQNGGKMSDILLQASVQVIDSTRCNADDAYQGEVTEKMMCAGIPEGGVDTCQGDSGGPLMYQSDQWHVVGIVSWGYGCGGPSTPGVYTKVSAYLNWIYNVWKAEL

Take `O=C(Nc1cccc(C(F)(F)F)c1C(F)(F)F)c1cc(Cl)ccc1O`: the inhibition entry in test [1] is “Dose-dependent effect”; in test [2] it was 77%; in test [3], 29%.

In the case of `Cc1c(C(F)(F)F)cc(NC(=O)c2cc(Cl)ccc2O)cc1C(F)(F)F`, the inhibition entry is “Dose-dependent effect” in test [1], 94% in test [2] and 51% in test [3].

Take `O=C(NCc1cc(C(F)(F)F)cc(C(F)(F)F)c1)c1cc(Cl)ccc1O`: the inhibition result is “Dose-dependent effect” in test [1], 63% in test [2] and 36% in test [3].

As to `O=C(Nc1ccc(C(F)(F)F)cc1)c1cc(Cl)ccc1O`, the inhibition entry in test [1] is “Dose-dependent effect”; in test [2], 100%; in test [3] it was 22%.

For the molecule `O=C(Nc1cc(C(F)(F)F)cc(C(F)(F)F)c1)c1cc([N+](=O)[O-])ccc1O`, the values for the inhibition entry in test [1], in test [2] and in test [3] were “Dose-dependent effect”, 78% and 33%, respectively.

On to `O=C(Nc1cc(C(F)(F)F)cc(C(F)(F)F)c1)c1cc(F)ccc1O`, for which the inhibition entry in test [1] was “Dose-dependent effect”; in test [2], 55%; in test [3], 0%.

In the case of `CC(=O)Nc1ccc(O)c(C(=O)Nc2cc(C(F)(F)F)cc(C(F)(F)F)c2)c1`, the figures for the inhibition result in test [1], in test [2] and in test [3] were “Dose-dependent effect”, 0% and 0%, respectively.

As for `COc1ccc(O)c(C(=O)Nc2cc(C(F)(F)F)cc(C(F)(F)F)c2)c1`, the inhibition entry was “Dose-dependent effect” in test [1], 53% in test [2] and 0% in test [3].

In the case of `O=C(Nc1cc(C(F)(F)F)cc(C(F)(F)F)c1)c1cc(-c2ccc(F)cc2F)ccc1O`, the results for the inhibition entry in test [1], in test [2] and in test [3] were “Dose-dependent effect”, 31% and 5%, respectively.

In the case of `O=C(Nc1cc(Cl)cc(Cl)c1)c1cc(Cl)ccc1O`, the inhibition result in test [1] was “Dose-dependent effect”; in test [2], 58%; in test [3] it was 15%.

Regarding `Cc1ccc(O)c(C(=O)Nc2cc(C(F)(F)F)cc(C(F)(F)F)c2)c1`, the inhibition entry in test [1] was “Dose-dependent effect”; in test [2], 64%; in test [3], 0%.

For `O=C(Nc1cccc(C(F)(F)F)c1)c1cc(Cl)ccc1O`, the inhibition result in test [1] was “Dose-dependent effect”; in test [2], 91%; in test [3] it was 37%.

For `O=C(Nc1cc(C(F)(F)F)cc(C(F)(F)F)c1)c1cccc(Cl)c1O`, the inhibition result was “Dose-dependent effect” in test [1], 93% in test [2] and 61% in test [3].

As for `O=C(Nc1cc(Cl)c(Cl)c(Cl)c1)c1cc(Cl)ccc1O`, the inhibition entry is “Dose-dependent effect” in test [1], 23% in test [2] and 6% in test [3].

`Cc1cc(Cl)cc(C(=O)Nc2cc(C(F)(F)F)cc(C(F)(F)F)c2)c1O`: the figures for the inhibition result in test [1], in test [2] and in test [3] were “Dose-dependent effect”, 78% and 33%, respectively.

With `COc1c(C(F)(F)F)cc(NC(=O)c2cc(Cl)ccc2O)cc1C(F)(F)F`, the inhibition entry in test [1] is “Dose-dependent effect”; in test [2] it was 80%; in test [3] it was 56%.

In the case of `O=C(Nc1cc(C(F)(F)F)cc(C(F)(F)F)c1)c1cc(Cl)ccc1OCc1ccccc1`, the inhibition result in test [1] was “Dose-dependent effect”; in test [2], 6%; in test [3], 0%.

Regarding `CC(=O)Oc1ccc(Cl)cc1C(=O)Nc1cc(C(F)(F)F)cc(C(F)(F)F)c1`, the inhibition result in test [1] was “Dose-dependent effect”; in test [2], 4%; in test [3], 0%.

On to `O=C(Nc1cc(C(F)(F)F)c(Br)c(C(F)(F)F)c1)c1cc(Cl)ccc1O`, for which the inhibition entry in test [1] is “Dose-dependent effect”; in test [2] it was 85%; in test [3], 58%.

As for `O=C(Nc1cc(C(F)(F)F)cc(C(F)(F)F)c1)c1ccc(Cl)cc1O`, the inhibition result in test [1] is “Dose-dependent effect”; in test [2], 74%; in test [3] it was 29%.

In the case of `O=C(Nc1cc(C(F)(F)F)cc(C(F)(F)F)c1Cl)c1cc(Cl)ccc1O`, the values for the inhibition result in test [1], in test [2] and in test [3] were “Dose-dependent effect”, 100% and 43%, respectively.

Consider `O=C(Nc1cc(C(F)(F)F)cc(C(F)(F)F)c1)c1cc(Cl)cnc1O`, for which the inhibition result in test [1] is “Dose-dependent effect”; in test [2], 19%; in test [3], 0%.

As for `O=C(Nc1cc(C(F)(F)F)ccc1C(F)(F)F)c1cc(Cl)ccc1O`, the inhibition result is “Dose-dependent effect” in test [1], 54% in test [2] and 46% in test [3].

Consider `O=C(Nc1cc(C(F)(F)F)cc(C(F)(F)F)c1)c1ccccc1O`, for which the figures for the inhibition entry in test [1], in test [2] and in test [3] were “Dose-dependent effect”, 20% and 0%, respectively.

As to `O=C(Nc1cc(C(F)(F)F)cc(C(F)(F)F)c1)c1cc(Cl)cc(Cl)c1O`, the results for the inhibition entry in test [1], in test [2] and in test [3] were “Dose-dependent effect”, 100% and 100%, respectively.

As to `O=C(Nc1cc(C(F)(F)F)ccc1Br)c1cc(Cl)ccc1O`, the inhibition entry was “Dose-dependent effect” in test [1], 100% in test [2] and 40% in test [3].

Take `NC(=O)c1ccc(O)c(C(=O)Nc2cc(C(F)(F)F)cc(C(F)(F)F)c2)c1`: the inhibition entry in test [1] was “Dose-dependent effect”; in test [2], 21%; in test [3], 0%.

Regarding `Nc1ccc(O)c(C(=O)Nc2cc(C(F)(F)F)cc(C(F)(F)F)c2)c1`, the inhibition result in test [1] was “Dose-dependent effect”; in test [2] it was 30%; in test [3], 3%.

`O=C(Nc1ccncc1Cl)c1cc(Cl)ccc1O`: the inhibition entry in test [1] was “Dose-dependent effect”; in test [2], 8%.

`O=C(Nc1ccc(C(F)(F)F)c(C(F)(F)F)c1)c1cc(Cl)ccc1O`: the inhibition entry in test [1] was “Dose-dependent effect”; in test [2], 59%; in test [3] it was 37%.

For `O=C(Nc1cc(C(F)(F)F)cc(C(F)(F)F)c1)c1ccc(C(F)(F)F)cc1O`, the inhibition entry in test [1] was “Dose-dependent effect”; in test [2] it was 79%; in test [3] it was 32%.

`O=C(Nc1cc(C(F)(F)F)cc(C(F)(F)F)c1)c1cnc2ccccc2c1O`: the figures for the inhibition entry in test [1], in test [2] and in test [3] were “Dose-dependent effect”, 0% and 0%, respectively.

For the molecule `O=C(Nc1cc(C(F)(F)F)cc(C(F)(F)F)c1)c1cc(Br)ccc1O`, the inhibition result in test [1] is “Dose-dependent effect”; in test [2] it was 84%; in test [3], 54%.

For `N#Cc1ccc(O)c(C(=O)Nc2cc(C(F)(F)F)cc(C(F)(F)F)c2)c1`, the values for the inhibition entry in test [1], in test [2] and in test [3] were “Dose-dependent effect”, 53% and 15%, respectively.

Source of the values: ChEMBL document CHEMBL4417635, “2-hydroxyarylamide derivative or pharmaceutically acceptable salt thereof, preparation method thereof, and pharmaceutical composition for preventing or treating cancer containing same as active ingredient” (2013).
